Experimental data reported in ChEMBL document CHEMBL5143586, “Advances in the Development of Nonpeptide Small Molecules Targeting Ghrelin Receptor” (J Med Chem, 2022).
pKi: −log10 of the molar value.

Key:
[1] = Binding affinity at mouse pancreas GHS-R1a assessed as inhibition constant; type: tissue-based
[2] = target: T1, Growth hormone secretagogue receptor type 1 (Homo sapiens, UniProt Q92847); assay: Antagonist activity at GHS-R1a (unknown origin) relative to control; type: functional
[3] = target: T1, Growth hormone secretagogue receptor type 1; assay: Inverse agonist activity at GHS-R1a (unknown origin) relative to control; type: functional
[4] = target: T1, Growth hormone secretagogue receptor type 1; assay: Binding affinity at GHS-R1a (unknown origin) assessed as inhibition constant

T1 sequence (Q92847 whole entry): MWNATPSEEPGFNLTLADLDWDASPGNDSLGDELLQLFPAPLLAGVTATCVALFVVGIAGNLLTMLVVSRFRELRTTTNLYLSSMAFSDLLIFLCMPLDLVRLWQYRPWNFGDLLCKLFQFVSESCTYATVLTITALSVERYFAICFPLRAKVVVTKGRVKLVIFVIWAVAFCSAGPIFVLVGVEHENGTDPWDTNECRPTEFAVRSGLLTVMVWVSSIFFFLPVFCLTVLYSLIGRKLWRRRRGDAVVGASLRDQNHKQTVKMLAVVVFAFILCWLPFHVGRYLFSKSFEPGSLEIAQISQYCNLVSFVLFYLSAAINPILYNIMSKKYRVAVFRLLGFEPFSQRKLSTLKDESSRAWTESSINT

Cc1ccccc1-c1nc2ccc(-c3ccc(Cl)cc3)cc2c(=O)n1C[C@@H]1CCCN(CCO[11CH3])C1
pKi [1]: 8.40

COc1ccc(Cn2c([C@@H](Cc3c[nH]c4ccccc34)NC(=O)CO)nnc2[C@@H](Cc2c[nH]c3ccccc23)NC(=O)[C@H](CC(C)C)NC(=O)[C@H](CC(C)C)NC(C)=O)cc1
Emax [2]: 0%

Cc1ccccc1-c1nc2ccc(-c3ccc(Cl)cc3)cc2c(=O)n1C[C@@H]1CCCN(CC[18F])C1
pKi [1]: 7.80

COc1ccc(Cn2c([C@@H](Cc3c[nH]c4ccccc34)NC(=O)[C@H](CC(C)C)NC(=O)[C@H](CC(C)C)NC(C)=O)nnc2[C@@H](Cc2c[nH]c3ccccc23)NC(=O)[C@@H](N)CCCCN)cc1
Emax [3]: -37% | pKi [4]: 8.52

C[C@H]1CN(C(=O)c2ccc(-c3ccc(O[11CH3])cc3)cc2)CCN1C(=O)c1ccc2cc[nH]c2c1
pKi [1]: 8.15

CC(C)C[C@H](NC(=O)[C@H](CC(C)C)NC(=O)[C@@H](Cc1c[nH]c2ccccc12)NC(=O)[C@H](Cc1ccccc1)NC(=O)[C@@H](Cc1c[nH]c2ccccc12)NC(=O)[C@@H](N)CCCCN)C(N)=O
Emax [3]: -55%
